In patent publication US20220125745A1, “PHARMACEUTICAL COMPOSITION FOR CO-ADMINISTRATION OF ACIDOSIS-INDUCING DRUG” (HAIM BIO CO., LTD., priority 2018, published 2022):
Read-outs that look alike come from different tables or passages of the source.

What was measured:
[1] = system: A549 cells (cancer cells); assay: Lactate assay (luminescence) in A549 cells, candidate substance alone or combined with a substance that causes lactic acidosis; assay type: cell-based; details: A549; for activity at 50 µM: Homo sapiens; for activity at 50 µM / Luminescence intensity (%), Berberine (10 μM) − / Luminescence intensity (%), Linezolid (200 μM) − / Luminescence intensity (%), Phenformin (100 μM) −: candidate 50 μM alone, 24 h, vs negative control, mean ± SEM
Procedure: (§1) To identify the effects of administration of the candidate substances for lactic acidosis treatment as described in Example 1 in combination with the above-mentioned substances that cause lactic acidosis, A549 cells (cancer cells) or L132 cells (normal cells) were respectively seeded in 96- or 24-well plates at a concentration of 1×10^4 or 3×10^5 cells/well, and incubation was performed overnight. Administration of the candidate substance for acidosis treatment in combination with the substance that causes lactic acidosis was performed and incubation was further performed for 24 hours. For the candidate substances for acidosis treatment, each substance was administered at a uniform concentration of 50 μM; and for the substances that cause lactic acidosis, metformin was administered at 1 to 100 μM, isoniazid was administered at 1 to 500 μM, berberine was administered at 10 μM, linezolid was administered at 200 μM, and phenformin was administered at 100 μM. All substances were dissolved in dimethyl sulfoxide (DMSO, Sigma-Aldrich Corporation, St. Louis, Mo., USA), and the substances to be administered in combination were administered simultaneously. Subsequently, 50 μl of the cell culture solution obtained by being diluted with Dulbecco's Phosphate-Buffered Saline (DPBS; Wellgene, Korea), and 50 μl of the lactate assay reaction buffer (Promega, Madison, Wis., USA) were mixed and the mixture was added in a 96-well plate. Reaction was allowed to proceed at room temperature for 1 hour. Then, luminescence was measured with a spectrophotometer (Synergy HTX Multi-Reader; BioTek, Winooski, Vt., USA). At the same time, the number of cells in each sample was measured with a cell viability analysis kit (Cell Counting Kit-8; Dojindo Molecular Technologies, Inc., Kumamoto, Japan), and calculation was performed so that the lactic acid measurement value in each sample could be compared with that in the negative control for the same number of cells.

[2] = system: L132 cells (normal cells); assay: Lactate assay (luminescence) in L132 cells, candidate substance alone or combined with a substance that causes lactic acidosis; assay type: cell-based; details: L132; for activity at 50 µM: Homo sapiens; for activity at 50 µM / Luminescence intensity (%), Berberine (10 μM) − / Luminescence intensity (%), Linezolid (200 μM) − / Luminescence intensity (%), Phenformin (100 μM) −: candidate 50 μM alone, 24 h, vs negative control, mean ± SEM
Procedure: as §1

[3] = candidate 50 μM + berberine 10 μM, relative to berberine alone (PC)
[4] = candidate 50 μM + linezolid 200 μM, relative to linezolid alone (PC)
[5] = candidate 50 μM + phenformin 100 μM, relative to phenformin alone (PC)
[6] = no berberine, read-out: Luminescence intensity (%), Berberine (10 μM) −
[7] = no linezolid, read-out: Luminescence intensity (%), Linezolid (200 μM) −
[8] = no phenformin, read-out: Luminescence intensity (%), Phenformin (100 μM) −

Structure (SMILES)	Lactic acid value vs. PC (%) [1, 3] [%]	Lactic acid-decreasing rate vs. PC (%) [1, 3] [%]	Lactic acid value vs. PC (%) [1, 4] [%]	Lactic acid-decreasing rate vs. PC (%) [1, 4] [%]	Lactic acid value vs. PC (%) [1, 5] [%]	Lactic acid-decreasing rate vs. PC (%) [1, 5] [%]	activity at 50 µM [1, 6] [%]	activity at 50 µM [1, 7] [%]	activity at 50 µM [1, 8] [%]	activity at 50 µM [2, 6] [%]	activity at 50 µM [2, 7] [%]	activity at 50 µM [2, 8] [%]	Lactic acid value vs. PC (%) [2, 3] [%]	Lactic acid-decreasing rate vs. PC (%) [2, 3] [%]	Lactic acid value vs. PC (%) [2, 4] [%]	Lactic acid-decreasing rate vs. PC (%) [2, 4] [%]	Lactic acid value vs. PC (%) [2, 5] [%]	Lactic acid-decreasing rate vs. PC (%) [2, 5] [%]	Luminescence intensity (%), Berberine (10 μM) − ([1]; no berberine)	Luminescence intensity (%), Linezolid (200 μM) − ([1]; no linezolid)	other results
O=CC(=O)c1ccccc1 [Phenylglyoxal]	90.18	9.82	82.74	17.26	89.61	10.39	97.3 ± 1.03	97.3 ± 1.03	97.3 ± 1.03	93.7 ± 1.34	93.7 ± 1.34	93.7 ± 1.34	90.06	9.94	88.89	11.11	96.12	3.88	–	–	–
N.N.[Cl][Pt][Cl] [CDDP, Cis-diamminedichloridoplatinum]	74.20	25.80	78.37	21.63	80.03	19.97	–	–	–	–	–	–	71.42	28.58	68.28	31.72	83.98	16.02	75.98 ± 2.34 %	75.98 ± 2.34 %	Luminescence intensity (%), Phenformin (100 μM) − ([1]; no phenformin): 75.98 ± 2.34 %; Luminescence intensity (%), Berberine (10 μM) − ([2]; no berberine): 76.97 ± 2.13 %; Luminescence intensity (%), Linezolid (200 μM) − ([2]; no linezolid): 76.97 ± 2.13 %; Luminescence intensity (%), Phenformin (100 μM) − ([2]; no phenformin): 76.97 ± 2.13 %
C=C(OP(=O)([O-])O)C(=O)O.O.[Na+] [Phospho(enol)pyruvic acid monosodium salt hydrate]	90.07	9.93	92.96	7.04	94.91	5.09	–	–	–	–	–	–	93.05	6.95	89.30	10.70	91.45	8.55	100.07 ± 1.80^ %	100.07 ± 1.80^ %	Luminescence intensity (%), Phenformin (100 μM) − ([1]; no phenformin): 100.07 ± 1.80^ %; Luminescence intensity (%), Berberine (10 μM) − ([2]; no berberine): 94.55 ± 1.37 %; Luminescence intensity (%), Linezolid (200 μM) − ([2]; no linezolid): 94.55 ± 1.37 %; Luminescence intensity (%), Phenformin (100 μM) − ([2]; no phenformin): 94.55 ± 1.37 %
CC(C)=CCCC(C)=CC=O [Citral]	95.67	4.33	103.20	−3.20	93.80	6.20	100.5 ± 0.81	100.5 ± 0.81	100.5 ± 0.81	102.4 ± 0.98	102.4 ± 0.98	102.4 ± 0.98	102.03	−2.03	102.02	−2.02	99.57	0.43	–	–	–
